The nature of series [1]: Test B: Cytotoxicity Assay. The format is cell-based. The note with it: human, uninfected MT-4 cells, CellTiter-Glo. The protocol: Test B: Cytotoxicity Assay Compound cytotoxicity and the corresponding CC50 values was determined using the same protocol as described in the antiviral assay (Test A) except that uninfected cells were used.
A general note: In ATP-based viability assays light output follows the ATP content of the culture.

The subject of the next series is HIV-IIIb. Put plainly: Test A: Antiviral Assay in MT4 Cells. The format is cell-based, HIV-1. To be noted: for inhibition at 2 µM: 2 μM drug concentration, read-out: Response at 2 μM (percent inhibition of virus-induced cell killing). The protocol:
Test A: Antiviral Assay in MT4 Cells
MT-4 cells were next mixed with HIV-IIIb at an m.o.i of 0.003 for 1 hour, after which time 35 μL of virus/cell mixture (2000 cells) was immediately added to each well containing 40 μL of diluted compound. The plates were then incubated at 37° C. for 5 days. After 5 days of incubation, 25 μl of 2× concentrated CellTiter-Glo™ Reagent (catalog #G7571, Promega Biosciences, Inc., Madison, Wis.) was added to each well containing MT-4 cells. Cell lysis was carried out by incubating at room temperature for 10 min and then chemiluminescence was read.

Where [2] appears, read: Human immunodeficiency virus 1, MT4, 120 h, 0.2 μM drug concentration, MT-4 cells infected with HIV-IIIb, 5 days, values normalized to 100%, average over time, read-out: % inhibition at 0.2 μM (percent inhibition of virus-induced cell killing).
The mark [3] stands for this setting: Human immunodeficiency virus 1, IIIB, MT4, 120 h, read-out: % inhibition at 0.2 μM (percent inhibition of virus-induced cell killing).
The mark [4] stands for this setting: Human immunodeficiency virus 1, IIIB, MT4, 0.2 μM drug concentration, comparison with previously published compounds, read-out: Response at 0.2 μM (percent inhibition of virus-induced cell killing).
The mark [5] stands for this setting: Human immunodeficiency virus 1, IIIB, MT4, comparison with previously published compounds.

Read-outs that look alike come from different tables or passages of the source.

As for `COc1ccc(C#Cc2ccc(-c3ccc4c(c3)C(=O)NC4)c([C@H](Cc3cc(F)cc(F)c3)NC(=O)Cn3nc(C(F)(F)F)c4c3C(F)(F)[C@@H]3C[C@H]43)n2)cn1` [Compound 10C, 2-((3bS,4aR)-5,5-difluoro-3-(trifluoromethyl)-3b,4,4a,5-tetrahydro-1H-cyclopropa[3,4]cyclopenta[1,2-c]pyrazol-1-yl)-N—((S)-2-(3,5-difluorophenyl)-1-(6-((6-methoxypyridin-3-yl)ethynyl)-3-(3-oxoisoindolin-5-yl)pyridin-2-yl)ethyl)acetamide], in series [1], the CC50 at 5 days is > 51.9 µM. Moreover, the inhibition at 0.2 µM in the series on HIV-IIIb (setting [2]) came to 21%.

Turning to `Cn1nc(NS(C)(=O)=O)c2c(Cl)ccc(-c3ccc(C#CC4(O)CC4)nc3[C@H](Cc3cc(F)cc(F)c3)NC(=O)Cn3nc(C(F)(F)F)c4c3C(F)(F)[C@@H]3C[C@H]43)c21` [Compound 64, N—((S)-1-(3-(4-chloro-1-methyl-3-(methylsulfonamido)-1H-indazol-7-yl)-6-((1-hydroxycyclopropyl)ethynyl)pyridin-2-yl)-2-(3,5-difluorophenyl)ethyl)-2-((3bS,4aR)-5,5-difluoro-3-(trifluoromethyl)-3b,4,4a,5-tetrahydro-1H-cyclopropa[3,4]cyclopenta[1,2-c]pyrazol-1-yl)acetamide], the cytotoxic concentration (CC50) at 5 days in series [1] was 16.1 µM. Moreover, the inhibition at 0.2 µM in the series on HIV-IIIb (setting [2]) came out at 98%.

Take `Cn1nc(NS(C)(=O)=O)c2c(Cl)ccc(-c3ccc(C#CC(C)(O)c4ccco4)nc3[C@H](Cc3cc(F)cc(F)c3)NC(=O)Cn3nc(C(F)(F)F)c4c3C(F)(F)[C@@H]3C[C@H]43)c21` (stereo partly drawn) [Compound 54, N-((1S)-1-(3-(4-chloro-1-methyl-3-(methylsulfonamido)-1H-indazol-7-yl)-6-(3-(furan-2-yl)-3-hydroxybut-1-yn-1-yl)pyridin-2-yl)-2-(3,5-difluorophenyl)ethyl)-2-((3bS,4aR)-5,5-difluoro-3-(trifluoromethyl)-3b,4,4a,5-tetrahydro-1H-cyclopropa[3,4]cyclopenta[1,2-c]pyrazol-1-yl)acetamide]: in series [1], the half-maximal cytotoxic concentration (CC50) at 5 days is 11.6 µM. Further, the inhibition at 0.2 µM in the series on HIV-IIIb (setting [2]) was 100%.

Compound `CCN1CCO[C@](C)(C#Cc2ccc(-c3ccc(Cl)c4c(NS(C)(=O)=O)nn(C)c34)c([C@H](Cc3cc(F)cc(F)c3)NC(=O)Cn3nc(C(F)F)c4c3C(F)(F)[C@@H]3C[C@H]43)n2)C1` [Compound 85, N—((S)-1-(3-(4-chloro-1-methyl-3-(methylsulfonamido)-1H-indazol-7-yl)-6-(((R)-4-ethyl-2-methylmorpholin-2-yl)ethynyl)pyridin-2-yl)-2-(3,5-difluorophenyl)ethyl)-2-((3bS,4aR)-3-(difluoromethyl)-5,5-difluoro-3b,4,4a,5-tetrahydro-1-cyclopropa[3,4]cyclopenta[1,2-c]pyrazol-1-yl)acetamide] returned a cytotoxic concentration (CC50) at 5 days in series [1] of 28.6 µM. In addition, the inhibition at 0.2 µM in the series with HIV-IIIb (setting [3]) came out at 100%.

In turn, `Cn1nc(NS(C)(=O)=O)c2c(Cl)ccc(-c3ccc(C#CC4(C)OCCn5ccnc54)nc3[C@H](Cc3cc(F)cc(F)c3)NC(=O)Cn3nc(C(F)F)c4c3C(F)(F)[C@@H]3C[C@H]43)c21` (stereo partly drawn) [Compound 82, N-((1S)-1-(3-(4-chloro-1-methyl-3-(methylsulfonamido)-1H-indazol-7-yl)-6-((8-methyl-6,8-dihydro-5H-imidazo[2,1-c][1,4]oxazin-8-yl)ethynyl)pyridin-2-yl)-2-(3,5-difluorophenyl)ethyl)-2-((3bS,4aR)-3-(difluoromethyl)-5,5-difluoro-3b,4,4a,5-tetrahydro-1H-cyclopropa[3,4]cyclopenta[1,2-c]pyrazol-1-yl)acetamide] returned a CC50 at 5 days in series [1] of 29.6 µM. For the same compound, the inhibition at 0.2 µM with HIV-IIIb (setting [2]) turned out to be 90%.

As to `Cn1nc(NS(C)(=O)=O)c2c(Cl)ccc(-c3ccc(C#C[C@]4(C)CNCCO4)nc3[C@H](Cc3cc(F)cc(F)c3)NC(=O)Cn3nc(C(F)(F)F)c4c3C(F)(F)[C@@H]3C[C@H]43)c21` [Compound 83G, N—((S)-1-(3-(4-chloro-1-methyl-3-(methylsulfonamido)-1H-indazol-7-yl)-6-(((R)-2-methylmorpholin-2-yl)ethynyl)pyridin-2-yl)-2-(3,5-difluorophenyl)ethyl)-2-((3bS,4aR)-5,5-difluoro-3-(trifluoromethyl)-3b,4,4a,5-tetrahydro-1H-cyclopropa[3,4]cyclopenta[1,2-c]pyrazol-1-yl)acetamide], it took 6.57 µM to reach half-maximal cytotoxicity in series [1] (CC50 at 5 days). Moreover, in the series with HIV-IIIb (setting [2]), the inhibition at 0.2 µM was 90%.

Take `Cc1nccn1C(C)(C)C#Cc1ccc(-c2ccc(Cl)c3c(NS(C)(=O)=O)nn(C)c23)c([C@H](Cc2cc(F)cc(F)c2)NC(=O)Cn2nc(C(F)F)c3c2C(F)(F)[C@@H]2C[C@H]32)n1` [Compound 89B]: half-maximal cytotoxicity in series [1] (CC50 at 5 days) was put at 8.31 µM. Moreover, in the series with HIV-IIIb (setting [2]), the inhibition at 0.2 µM amounted to 87%.

On to `Cn1nc(NS(C)(=O)=O)c2c(Cl)ccc(-c3ccc(C#CC4(O)COC(C)(C)OC4)nc3[C@H](Cc3cc(F)cc(F)c3)NC(=O)Cn3nc(C(F)(F)F)c4c3C(F)(F)[C@@H]3C[C@H]43)c21` [Compound 74, N—((S)-1-(3-(4-chloro-1-methyl-3-(methylsulfonamido)-1H-indazol-7-yl)-6-((5-hydroxy-2,2-dimethyl-1,3-dioxan-5-yl)ethynyl)pyridin-2-yl)-2-(3,5-difluorophenyl)ethyl)-2-((3bS,4aR)-5,5-difluoro-3-(trifluoromethyl)-3b,4,4a,5-tetrahydro-1H-cyclopropa[3,4]cyclopenta[1,2-c]pyrazol-1-yl)acetamide], for which, in series [1], the cytotoxic concentration (CC50) at 5 days was found to be 8.62 µM. Also, the inhibition at 0.2 µM in the series on HIV-IIIb (setting [2]) was 77%.

`Cn1nc(NS(C)(=O)=O)c2c(Cl)ccc(-c3ccc(C#CC(O)C4CNC4)nc3[C@H](Cc3cc(F)cc(F)c3)NC(=O)Cn3nc(C(F)(F)F)c4c3C(F)(F)[C@@H]3C[C@H]43)c21` (stereo partly drawn) [Compound 65, N-((1S)-1-(6-(3-(azetidin-3-yl)-3-hydroxyprop-1-yn-1-yl)-3-(4-chloro-1-methyl-3-(methylsulfonamido)-1H-indazol-7-yl)pyridin-2-yl)-2-(3,5-difluorophenyl)ethyl)-2-((3bS,4aR)-5,5-difluoro-3-(trifluoromethyl)-3b,4,4a,5-tetrahydro-1H-cyclopropa[3,4]cyclopenta[1,2-c]pyrazol-1-yl)acetamide]: in series [1], half-maximal cytotoxicity (CC50 at 5 days) was put at 19.3 µM. In the series on HIV-IIIb (setting [2]), the inhibition at 0.2 µM worked out at 37%.

`O=C(Cc1c[nH]c2ccc(O)cc12)N[C@@H](Cc1cc(F)cc(F)c1)c1ncccc1C#CC1CC1` [Compound 53, reference compound]: the inhibition at 0.2 µM in the series with HIV-IIIb (setting [4]) was found to be 0%. The inhibition at 2 µM in the series with HIV-IIIb (setting [5]) came to 33%.

Regarding `CC(C)(O)C#Cc1ccc(-c2ccc(F)c(C(N)=O)c2)c([C@H](Cc2cc(F)cc(F)c2)NC(=O)Cn2nc(C(F)(F)F)c3c2C(F)(F)[C@@H]2C[C@H]32)n1` [Compound 18, reference compound], the inhibition at 0.2 µM in the series with HIV-IIIb (setting [4]) came out at 96%. In addition, the inhibition at 2 µM in the series on HIV-IIIb (setting [5]) stood at 96%.

`Cn1nc(NS(C)(=O)=O)c2c(Cl)ccc(-c3ccc(C#CC4(O)CC(F)(F)C4)nc3[C@H](Cc3cc(F)cc(F)c3)NC(=O)Cn3nc(C(F)F)c4c3C(F)(F)[C@@H]3C[C@H]43)c21` [Compound 95E, N—((S)-1-(3-(4-chloro-1-methyl-3-(methylsulfonamido)-1H-indazol-7-yl)-6-((3,3-difluoro-1-hydroxycyclobutyl)ethynyl)pyridin-2-yl)-2-(3,5-difluorophenyl)ethyl)-2-((3bS,4aR)-3-(difluoromethyl)-5,5-difluoro-3b,4,4a,5-tetrahydro-1H-cyclopropa[3,4]cyclopenta[1,2-c]pyrazol-1-yl)acetamide]: in the series on HIV-IIIb (setting [3]), the inhibition at 0.2 µM turned out to be 96%.

As a reminder, the CC50 is the concentration that lowers cell viability or growth by half. A high value points to lower toxicity to the cells. For orientation: inhibition means the share of the control response that was lost under treatment.

For the origin of these results see US9873680B2 (Gilead Sciences, Inc., priority 2014, dated 2018).
